From patent US20210238201A1, “ANTIMICROBIAL COMPOUNDS AND COMPOSITIONS” (AGROFRESH INC., priority 2020, published 2021)
Converted amounts (≈) assume the structure as drawn.

Tests used:
[1] = tested on: Botrytis cinerea (ATCC #204446); test: in vitro inhibition assay for volatile antimicrobial compounds (headspace, PDA agar); assay type: cell-based; conditions: for MIC / EC50: Botrytis cinerea, ATCC204446, 72 h; for EC50: growth relative to control
Experimental: (§1) 12-well (6.5 ml volume per well) microtiter plates are used for the in vitro inhibition assay for volatile antimicrobial compounds. A 3-ml volume of full-strength Potato Dextrose Agar (PDA) is added to each well. After cooling, 1 μL of 1×10^5 spores per ml Botrytis cinerea (ATCC #204446) spore suspension is spot pipetted to the agar in the center of the well. Whatman #1 filter disks (1.5 cm; Cat. No. 1001-0155) are placed on the underside of a polyethylene PCR plate sealing film. For determination of the minimum inhibitory concentration (MIC), test compounds are diluted in acetone, in duplicate, and 50 μli of the compound solution is added to disks at concentrations that can vary from 0.001 mg/l to 1142.9 mg/l. The acetone is permitted to evaporate for 5 minutes. The headspace around the Botrytis cinerea inoculum is then sealed inside the well by the film with the adhering disk containing the antimicrobial, anti-decay, anti-spoilage, or pathogen control agent. Plates are inverted to prevent any possibility of the chemical from flaking from the disk and falling onto the inoculated agar.

Penicillium expansum = test: as above; assay type: cell-based; conditions: volatile headspace exposure
Experimental: [The procedure below names another organism; the source lists this organism under the same test.] as §1

Alternaria alternata = test: as above; assay type: cell-based; conditions: volatile headspace exposure
Experimental: [The procedure below names another organism; the source lists this organism under the same test.] as §1

[2] = tested on: Botrytis cinerea (ATCC #204446); test: Grape in vivo analysis, volatile bioassay on inoculated green table grape; set-up: species or system Botrytis cinerea on green table grape; conditions: for antimicrobial activity against Botrytis cinerea in grape in vivo analysis: stem wound inoculated, 3 days treatment at 21° C. plus 3 days evaluation; for phytotoxicity in grape in vivo analysis: symptoms of phytotoxicity evaluated daily
Experimental: In order to assess the in vivo activity of volatile antimicrobial compounds, a volatile bioassay is developed using green table grape. Fruit are removed from the rachis, and 16 to 20 fruit are placed inside a 1 dry pint clamshell (Produce Packaging; Product #03231004KZ) with the stem wound facing upwards. The grapes are inoculated by pipetting 20 μL of 1×10^6 spore per ml Botrytis cinerea (ATCC #204446) into the stem wound. The clamshell is placed inside a 2.55 L plastic container (Snapware; Model #1098421). A Whatman #1 filter paper (4.25 cm; Cat. No. 1001-042) is placed on a watchglass, which is then placed on top of the closed clamshell lid. For determination of the MIC, test compounds are diluted in acetone, and 400 μl of the solution is added to disks, in duplicate, in a dose dependent manner (for example 0.4 to 50 mg/liter). The acetone is permitted to evaporate for 5 minutes. The plastic containers are then closed and placed for 3 days at 21° C. Clamshells are then removed from the treatment plastic container and placed into separate larger secondary containers for a further 3 days of evaluation at 21° C. During these 3 days, fruit are evaluated daily for incidence and severity of disease and symptoms of phytotoxicity.

[3] = tested on: Botrytis cinerea (ATCC #204446); test: Strawberry in vivo analysis, volatile bioassay on wound-inoculated strawberry; set-up: species or system Botrytis cinerea on strawberry; conditions: for phytotoxicity in strawberry in vivo analysis: symptoms of phytotoxicity evaluated daily; for antimicrobial activity against Botrytis cinerea in strawberry in vivo analysis: wound-inoculated, 3 days treatment at 21° C. plus 3 days evaluation
Experimental: In order to assess the in vivo activity of volatile antimicrobial compounds, a volatile bioassay is developed using strawberry. Fruit (6 to 8) are placed inside a 1 lb clamshell (Packaging Direct Inc.; Product #4341699) with the calyx facing downward. The strawberry fruit are wound-inoculated by pipetting 20 μL of 1×10^6 spore per ml Botrytis cinerea (ATCC #204446) into a wound approximately 5 mm deep and 2.6 mm in width. The clamshell is placed inside a 2.55 L plastic container (Snapware; Model #1098421). A Whatman #1 filter paper (4.25 cm; Cat. No. 1001-042) is placed on a watchglass, which is then placed on top of the closed clamshell lid. For determination of the MIC, test compounds are diluted in acetone, and 400 μl of the solution is added to disks, in duplicate, in a dose dependent manner (for example 0.4 to 50 mg/liter). The acetone is permitted to evaporate for 5 minutes. The plastic containers are then closed and placed for 3 days at 21° C. Clamshells are then removed from the treatment plastic container and placed into separate larger secondary containers for a further 3 days of evaluation at 21° C. During these 3 days, fruit are evaluated daily for incidence and severity of disease and symptoms of phytotoxicity.

[4] = tested on: Escherichia coli (ATCC #25922); test: in vitro inhibition assay for volatile antimicrobial compounds against bacteria (LB agar); assay type: cell-based; conditions: volatile headspace exposure, 2 days at 23° C.
Experimental: 12-well (6.5 ml volume per well) microtiter plates are used for the in vitro inhibition assay for volatile antimicrobial compounds. A 3-ml volume of full-strength L^B Agar is added to each well. After cooling, 15 μL of Escherichia coli (ATCC #25922) adjusted to an optical density of 0.02 to 0.035, and further diluted 1/10 is pipetted to the center of the agar. The plate is tilted to distribute bacteria uniformly. Whatman #1 filter disks (1.5 cm; Cat. No. 1001-0155) are placed on the underside of a polyethylene PCR plate sealing film. […] The acetone is permitted to evaporate for 5 minutes. The headspace around the Escherichia coli inoculum is then sealed inside the well by the film with the adhering disk containing the antimicrobial, anti-decay, anti-spoilage, or pathogen control agent. Plates are inverted, placed over the treated disks and sealed to prevent any of the chemical from flaking from the disk and falling onto the inoculated agar. After 2 days of incubation at 23° C., cultures were evaluated for colony growth relative to control.

Monilinia fructicola = test: in vitro inhibition assay for volatile antimicrobial compounds (headspace, PDA agar); assay type: cell-based; conditions: volatile headspace exposure
Experimental: [The procedure below names another organism; the source lists this organism under the same test.] as §1

[5] = volatile headspace exposure, 3 days at 23° C.

| MIC [1, 5] [µg/mL] | EC50 [1, 5] [µg/mL] | EC50 (Penicillium expansum) [µg/mL] | MIC (Penicillium expansum) [µg/mL] | SMILES | further results |
| --- | --- | --- | --- | --- | --- |
| 1.1 (≈ 2.71 µM) | 0.4 (≈ 0.985 µM) | 1.7 (≈ 4.19 µM) | 17.9 (≈ 44.1 µM) | Fc1ccc2c(c1)COB2OCc1ccc(COB2OCc3cc(F)ccc32)cc1 [Compound 14, 1,4-bis(((5-fluorobenzo[c][1,2]oxaborol-1(3H)-yl)oxy)methyl)benzene] |  |
|  |  |  |  | Clc1ccc2c(c1)COB2OCCOB1OCc2cc(Cl)ccc21 [Compound 19, 1,2-bis((5-chlorobenzo[c][1,2]oxaborol-1(3H)-yl)oxy)ethane] | MIC Botrytis cinerea [1, 5]: 0 µg/mL |
|  |  | 3.3 (≈ 11.3 µM) | 17.9 (≈ 61.3 µM) | c1ccc2c(c1)COB2NCCNB1OCc2ccccc21 [Compound 5, N^1,N^2-bis(benzo[c][1,2]oxaborol-1(3H)-yl)ethane-1,2-diamine] |  |
| 0.3 (≈ 1.05 µM) | 0.1 (≈ 0.35 µM) | 0.5 (≈ 1.75 µM) | 4.5 (≈ 15.7 µM) | Fc1ccc2c(c1)COB2OB1OCc2cc(F)ccc21 [Compound 20, 1,1′-oxybis(5-fluoro-1,3-dihydrobenzo[c][1,2]oxaborole)] |  |
| 1.1 (≈ 3.35 µM) | 0.4 (≈ 1.22 µM) | 1.8 (≈ 5.49 µM) | 17.9 (≈ 54.6 µM) | Fc1ccc2c(c1)COB2NCCNB1OCc2cc(F)ccc21 [Compound 17, N^1,N^2-bis(5-fluorobenzo[c][1,2]oxaborol-1(3H)-yl)ethane-1,2-diamine] |  |
| 1.1 (≈ 2.85 µM) | 0.3 (≈ 0.777 µM) | 0.8 (≈ 2.07 µM) | 4.5 (≈ 11.7 µM) | CC(C)(OB1OCc2cc(F)ccc21)C(C)(C)OB1OCc2cc(F)ccc21 [Compound 9, 1,1′-((2,3-dimethylbutane-2,3-diyl)bis(oxy))bis(5-fluoro-1,3-dihydrobenzo[c][1,2]oxaborole)] | EC50 (Alternaria alternata): 0.3 µg/mL (≈ 0.777 µM); MIC (Alternaria alternata): 2.2 µg/mL (≈ 5.7 µM); antimicrobial activity against Botrytis cinerea in grape in vivo analysis [2]: good antimicrobial activity; phytotoxicity in grape in vivo analysis [2]: no phytotoxicity; phytotoxicity in strawberry in vivo analysis [3]: no phytotoxicity; antimicrobial activity against Botrytis cinerea in strawberry in vivo analysis [3]: good antimicrobial activity; antimicrobial activity against Escherichia coli (colony growth relative to control) [4]: good antimicrobial activity |
| 0.6 (≈ 1.61 µM) | 0.3 (≈ 0.806 µM) | 0.8 (≈ 2.15 µM) | 2.2 (≈ 5.91 µM) | CC(C)(COB1OCc2cc(F)ccc21)COB1OCc2cc(F)ccc21 [Compound 8, 1,1′-((2,2-dimethylpropane-1,3-diyl)bis(oxy))bis(5-fluoro-1,3-dihydrobenzo[c][1,2]oxaborole)] |  |
| 2.2 (≈ 8.8 µM) | 0.8 (≈ 3.2 µM) | 3.1 (≈ 12.4 µM) | 17.9 (≈ 71.6 µM) | c1ccc2c(c1)COB2OB1OCc2ccccc21 [Compound 6, 1,1′-oxybis(1,3-dihydrobenzo[c][1,2]oxaborole)] |  |
| 2.2 (≈ 5.42 µM) | 0.7 (≈ 1.72 µM) | 2.5 (≈ 6.16 µM) | 17.9 (≈ 44.1 µM) | Fc1ccc2c(c1)COB2OCc1cccc(COB2OCc3cc(F)ccc32)c1 [Compound 15, 1,3-bis(((5-fluorobenzo[c][1,2]oxaborol-1(3H)-yl)oxy)methyl)benzene] |  |
| 0.6 (≈ 1.74 µM) | 0.2 (≈ 0.582 µM) | < 0.6 | 8.9 (≈ 25.9 µM) | CC(COB1OCc2cc(F)ccc21)OB1OCc2cc(F)ccc21 (stereo not shown) [Compound 11, 1,1′-(propane-1,2-diylbis(oxy))bis(5-fluoro-1,3-dihydrobenzo[c][1,2]oxaborole)] | EC50 (Alternaria alternata): 0.31 µg/mL (≈ 0.901 µM); MIC (Alternaria alternata): 1.1 µg/mL (≈ 3.2 µM); EC50 (Monilinia fructicola): 0.2 µg/mL (≈ 0.582 µM) |
| 0.6 (≈ 1.67 µM) | 0.2 (≈ 0.556 µM) | 1.1 (≈ 3.06 µM) | 8.9 (≈ 24.7 µM) | OC(COB1OCc2cc(F)ccc21)COB1OCc2cc(F)ccc21 [Compound 12, 1,3-bis((5-fluorobenzo[c][1,2]oxaborol-1(3H)-yl)oxy)propan-2-ol] |  |
| 0.3 (≈ 0.872 µM) | 0.1 (≈ 0.291 µM) | 0.8 (≈ 2.33 µM) | 8.9 (≈ 25.9 µM) | Fc1ccc2c(c1)COB2OCCCOB1OCc2cc(F)ccc21 [Compound 13, 1,3-bis((5-fluorobenzo[c][1,2]oxaborol-1(3H)-yl)oxy)propane] | antimicrobial activity against Botrytis cinerea in grape in vivo analysis [2]: good antimicrobial activity; phytotoxicity in grape in vivo analysis [2]: no phytotoxicity; phytotoxicity in strawberry in vivo analysis [3]: no phytotoxicity; antimicrobial activity against Botrytis cinerea in strawberry in vivo analysis [3]: good antimicrobial activity; antimicrobial activity against Escherichia coli (colony growth relative to control) [4]: good antimicrobial activity |
| 1.1 (≈ 3.22 µM) | 0.3 (≈ 0.877 µM) | 1 (≈ 2.92 µM) | 8.9 (≈ 26 µM) | Fc1ccc2c(c1)COB2NCCCNB1OCc2cc(F)ccc21 [Compound 16, N^1,N^3-bis(5-fluorobenzo[c][1,2]oxaborol-1(3H)-yl)propane-1,3-diamine] |  |
| 0.6 (≈ 1.82 µM) | 0.2 (≈ 0.606 µM) | < 0.6 | 8.9 (≈ 27 µM) | Fc1ccc2c(c1)COB2OCCOB1OCc2cc(F)ccc21 [Compound 7, 1,2-bis((5-fluorobenzo[c][1,2]oxaborol-1(3H)-yl)oxy)ethane] | EC50 (Alternaria alternata): 0.3 µg/mL (≈ 0.909 µM); MIC (Alternaria alternata): 2.2 µg/mL (≈ 6.67 µM); antimicrobial activity against Botrytis cinerea (in words) ([1]; in vitro analysis, b318 says Botrytis cinerea and/or other pathogens): excellent activity; MIC (Monilinia fructicola): 2.2 µg/mL (≈ 6.67 µM); antimicrobial activity against Botrytis cinerea in grape in vivo analysis [2]: good antimicrobial activity; phytotoxicity in grape in vivo analysis [2]: no phytotoxicity; phytotoxicity in strawberry in vivo analysis [3]: no phytotoxicity; antimicrobial activity against Botrytis cinerea in strawberry in vivo analysis [3]: good antimicrobial activity; antimicrobial activity against Escherichia coli (colony growth relative to control) [4]: good antimicrobial activity |
| 9 (≈ 24.6 µM) | 3 (≈ 8.2 µM) | > 35.7 | > 35.7 | Fc1cc2c(cc1F)B(OCCOB1OCc3cc(F)c(F)cc31)OC2 [Compound 18, 1,2-bis((5,6-difluorobenzo[c][1,2]oxaborol-1(3H)-yl)oxy)ethane] |  |
| 0.6 (≈ 1.44 µM) | 0.2 (≈ 0.481 µM) | 0.9 (≈ 2.16 µM) | 8.9 (≈ 21.4 µM) | Fc1ccc2c(c1)COB2OCCNCCNCCOB1OCc2cc(F)ccc21 [Compound 10, N^1,N^2-bis(2-((5-fluorobenzo[c][1,2]oxaborol-1(3H)-yl)oxy)ethyl)ethane-1,2-diamine] |  |
| 1.1 (≈ 2.89 µM) | 0.4 (≈ 1.05 µM) | 2 (≈ 5.26 µM) | 8.9 (≈ 23.4 µM) | c1ccc2c(c1)COB2OCCNCCNCCOB1OCc2ccccc21 [Compound 4, N^1,N^2-bis(2-(benzo[c][1,2]oxaborol-1(3H)-yloxy)ethyl)ethane-1,2-diamine] |  |
| 8.9 (≈ 25.4 µM) | 2.1 (≈ 6 µM) | 11.1 (≈ 31.7 µM) | 71.4 (≈ 204 µM) | CC(C)(OB1OCc2ccccc21)C(C)(C)OB1OCc2ccccc21 [Compound 3, 1,1′-((2,3-dimethylbutane-2,3-diyl)bis(oxy))bis(1,3-dihydrobenzo[c][1,2]oxaborole)] |  |
